Results taken from ChEMBL document CHEMBL1909046, “DrugMatrix in vitro pharmacology data”.

Legend:
[1] = target: Tyrosine-protein kinase Lck (Homo sapiens, UniProt P06239); test: DRUGMATRIX: Protein Tyrosine Kinase, LCK enzyme inhibition (substrate: Poly(Glu:Tyr)); type: cell-based, Insect cells; details: Not Active = under 50% inhibition at 10 µM
[2] = DRUGMATRIX: Glutamate, NMDA, Phencyclidine radioligand binding (ligand: [3H] TCP); type: cell membranes, Rattus norvegicus, Wistar, Cerebral cortex, Membrane; details: Not Active = under 50% inhibition at 10 µM
[3] = DRUGMATRIX: Interleukin IL-1 radioligand binding (ligand: [125I] interleukin 1beta); type: cell membranes, Membrane; details: nih3t3; Not Active = under 50% inhibition at 10 µM
[4] = DRUGMATRIX: Glutamate, NMDA, Agonism radioligand binding (ligand: [3H] CGP-39653); type: cell membranes, Rattus norvegicus, Wistar, Cerebral cortex, Membrane; details: Not Active = under 50% inhibition at 10 µM
[5] = target: T1, Neuropeptide Y receptor type 2 (Homo sapiens, UniProt P49146); type: cell membranes, Membrane; details: kan-ts; also: in other assays of this panel Not Active means under 50% inhibition at 10 µM
T1 sequence (P49146 whole entry): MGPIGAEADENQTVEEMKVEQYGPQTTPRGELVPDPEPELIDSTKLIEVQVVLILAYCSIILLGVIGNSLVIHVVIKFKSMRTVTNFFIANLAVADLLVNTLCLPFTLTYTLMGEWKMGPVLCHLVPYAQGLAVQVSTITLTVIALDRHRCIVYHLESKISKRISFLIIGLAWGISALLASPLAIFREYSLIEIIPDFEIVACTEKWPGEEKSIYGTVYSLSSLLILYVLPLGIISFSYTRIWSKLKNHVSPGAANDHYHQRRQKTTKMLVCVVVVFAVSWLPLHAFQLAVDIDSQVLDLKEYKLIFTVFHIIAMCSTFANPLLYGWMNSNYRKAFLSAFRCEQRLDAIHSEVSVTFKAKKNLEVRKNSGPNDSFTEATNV

[6] = target: Beta-3 adrenergic receptor (Homo sapiens, UniProt P13945); test: DRUGMATRIX: Adrenergic beta3 radioligand binding (ligand: [125I] Cyanopindolol); type: cell membranes, HEK293, Membrane; details: Not Active = under 50% inhibition at 10 µM; for Ki: read-out: Ki
Chain of Beta-3 adrenergic receptor (P13945 whole entry): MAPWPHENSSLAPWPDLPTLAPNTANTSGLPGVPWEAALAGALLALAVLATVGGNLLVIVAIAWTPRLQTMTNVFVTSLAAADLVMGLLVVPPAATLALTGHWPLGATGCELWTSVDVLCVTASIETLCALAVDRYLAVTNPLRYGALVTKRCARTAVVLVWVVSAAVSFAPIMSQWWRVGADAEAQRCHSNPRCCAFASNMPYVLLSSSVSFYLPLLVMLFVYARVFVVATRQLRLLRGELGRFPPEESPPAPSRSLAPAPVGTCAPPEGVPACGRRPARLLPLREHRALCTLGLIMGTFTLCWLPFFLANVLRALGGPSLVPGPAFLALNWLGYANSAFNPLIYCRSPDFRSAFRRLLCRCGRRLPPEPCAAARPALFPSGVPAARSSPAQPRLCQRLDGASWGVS

Chain of Tyrosine-protein kinase Lck (P06239 whole entry): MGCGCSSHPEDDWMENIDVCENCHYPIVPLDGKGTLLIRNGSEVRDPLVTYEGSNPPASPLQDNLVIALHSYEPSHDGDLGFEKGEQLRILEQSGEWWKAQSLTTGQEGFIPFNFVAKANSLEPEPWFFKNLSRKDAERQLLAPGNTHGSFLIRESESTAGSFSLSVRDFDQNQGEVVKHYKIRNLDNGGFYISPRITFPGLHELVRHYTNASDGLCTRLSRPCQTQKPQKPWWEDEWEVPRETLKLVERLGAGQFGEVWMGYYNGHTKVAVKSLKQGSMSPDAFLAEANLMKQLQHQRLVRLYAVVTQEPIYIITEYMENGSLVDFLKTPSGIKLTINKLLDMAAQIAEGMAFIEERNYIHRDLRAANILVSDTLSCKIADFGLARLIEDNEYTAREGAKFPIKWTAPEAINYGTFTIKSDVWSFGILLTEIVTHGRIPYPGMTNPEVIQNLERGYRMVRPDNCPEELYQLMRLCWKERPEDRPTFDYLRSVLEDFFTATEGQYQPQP

SMILES	IC50 ([1]; insect cells)	IC50 [2]	Ki [2]	IC50 [3]	Ki [3]	IC50 [4]	Ki [4]	IC50 [5]	IC50 ([6]; read-out: IC50) [µM]	Ki [6] [µM]	IC50 ([6]; hek293)	IC50 ([1]; read-out: IC50) [µM]	IC50 ([2]; read-out: IC50) [µM]	Ki ([2]; read-out: Ki) [µM]
CCOc1nc2cccc(C(=O)O)c2n1Cc1ccc(-c2ccccc2-c2nnn[nH]2)cc1	Not Active	Not Active	Not Active	Not Active	Not Active	Not Active	Not Active	Not Active	4.3	3.2	–	–	–	–
O=C(O)CCCc1cccs1	Not Active	Not Active	Not Active	Not Active	Not Active	Not Active	Not Active	Not Active	–	–	Not Active	–	–	–
COc1ccccc1N	Not Active	Not Active	Not Active	Not Active	Not Active	Not Active	Not Active	Not Active	–	–	Not Active	–	–	–
O=C(c1ccccc1F)N1CCC(Cc2ccccc2)CC1	Not Active	Not Active	Not Active	Not Active	Not Active	Not Active	Not Active	Not Active	–	–	Not Active	–	–	–
Cc1c(O)cccc1C(=O)N[C@@H](CSc1ccccc1)[C@H](O)CN1C[C@H]2CCCC[C@H]2C[C@H]1C(=O)NC(C)(C)C	–	Not Active	Not Active	Not Active	Not Active	Not Active	Not Active	Not Active	34.1	25.6	–	79.2	–	–
CC(O)COC[C@H]1O[C@@H]2O[C@H]3[C@H](O)[C@@H](O)[C@@H](O[C@H]4[C@H](O)[C@@H](O)[C@@H](O[C@H]5[C@H](O)[C@@H](O)[C@@H](O[C@H]6[C@H](O)[C@@H](O)[C@@H](O[C@H]7[C@H](O)[C@@H](O)[C@@H](O[C@H]8[C@H](O)[C@@H](O)[C@@H](O[C@H]1[C@H](O)[C@H]2O)O[C@@H]8COCC(C)O)O[C@@H]7COCC(C)O)O[C@@H]6COCC(C)O)O[C@@H]5COCC(C)O)O[C@@H]4COCC(C)O)O[C@@H]3COCC(C)O (stereo partly drawn) [2-HYDROXYPROPYL-BETA-CYCLODEXTRIN]	Not Active	Not Active	Not Active	Not Active	Not Active	Not Active	Not Active	Not Active	–	–	Not Active	–	–	–
NC(=O)c1cccc(N)c1 [3-AMINOBENZAMIDE]	Not Active	Not Active	Not Active	Not Active	Not Active	Not Active	Not Active	Not Active	–	–	Not Active	–	–	–
C[C@H]1O[C@H](O[C@H]2[C@H](O)[C@@H](O)[C@@H](O[C@H]3[C@H](O)[C@@H](O)C(O)O[C@@H]3CO)O[C@@H]2CO)[C@H](O)[C@@H](O)[C@@H]1N[C@H]1C=C(CO)[C@@H](O)[C@H](O)[C@H]1O (some centres not stated) [ACARBOSE]	Not Active	Not Active	Not Active	Not Active	Not Active	Not Active	Not Active	Not Active	–	–	Not Active	–	–	–
CC[C@H]1[C@@H]2C[C@H]3[C@@H]4N(C)c5ccccc5[C@]45C[C@@H]([C@@H]2[C@H]5O)N3[C@@H]1O [AJMALINE]	Not Active	Not Active	Not Active	Not Active	Not Active	Not Active	Not Active	Not Active	–	–	Not Active	–	–	–
NC12CC3CC(CC(C3)C1)C2 [AMANTADINE]	Not Active	–	–	Not Active	Not Active	Not Active	Not Active	Not Active	–	–	Not Active	–	32	21.7
NCCCNCCSP(=O)(O)O [AMIFOSTINE]	Not Active	Not Active	Not Active	Not Active	Not Active	Not Active	Not Active	Not Active	–	–	Not Active	–	–	–
CN(C)CCC=C1c2ccccc2CCc2ccccc21 [AMITRIPTYLINE]	Not Active	Not Active	Not Active	Not Active	Not Active	Not Active	Not Active	Not Active	–	–	Not Active	–	–	–
CC(=O)Oc1ccccc1C(=O)O [ASPIRIN]	Not Active	Not Active	Not Active	Not Active	Not Active	Not Active	Not Active	Not Active	–	–	Not Active	–	–	–
CC(C)c1c(C(=O)Nc2ccccc2)c(-c2ccccc2)c(-c2ccc(F)cc2)n1CC[C@@H](O)C[C@@H](O)CC(=O)O [ATORVASTATIN]	Not Active	Not Active	Not Active	Not Active	Not Active	Not Active	Not Active	Not Active	–	–	Not Active	–	–	–
CC(=O)OC[C@H]1O[C@@H](n2ncc(=O)[nH]c2=O)[C@H](OC(C)=O)[C@@H]1OC(C)=O [AZARIBINE]	Not Active	Not Active	Not Active	Not Active	Not Active	Not Active	Not Active	Not Active	–	–	Not Active	–	–	–
C[C@H]1[C@H](NC(=O)/C(=N\OC(C)(C)C(=O)O)c2csc(N)n2)C(=O)N1S(=O)(=O)O [AZTREONAM]	Not Active	Not Active	Not Active	Not Active	Not Active	Not Active	Not Active	Not Active	–	–	Not Active	–	–	–
O=C(O)CCNC(=O)c1ccc(/N=N/c2ccc(O)c(C(=O)O)c2)cc1 [BALSALAZIDE]	Not Active	Not Active	Not Active	Not Active	Not Active	Not Active	Not Active	Not Active	–	–	Not Active	–	–	–
COc1cc(OC)c(C(=O)CCCN2CCCC2)c(OC)c1 [BUFLOMEDIL]	Not Active	Not Active	Not Active	Not Active	Not Active	Not Active	Not Active	Not Active	–	–	Not Active	–	–	–
Cn1c(=O)c2c(ncn2C)n(C)c1=O [CAFFEINE]	Not Active	Not Active	Not Active	Not Active	Not Active	Not Active	Not Active	Not Active	–	–	Not Active	–	–	–
ClC(Cl)(Cl)Cl [CARBON TETRACHLORIDE]	Not Active	Not Active	Not Active	Not Active	Not Active	Not Active	Not Active	Not Active	–	–	Not Active	–	–	–
CO/N=C(\C(=O)N[C@@H]1C(=O)N2C(C(=O)O)=C(COC(C)=O)CS[C@H]12)c1csc(N)n1 [CEFOTAXIME]	Not Active	Not Active	Not Active	Not Active	Not Active	Not Active	Not Active	Not Active	–	–	Not Active	–	–	–
CNC1=Nc2ccc(Cl)cc2C(c2ccccc2)=[N+]([O-])C1 [CHLORDIAZEPOXIDE]	Not Active	Not Active	Not Active	Not Active	Not Active	Not Active	Not Active	Not Active	–	–	Not Active	–	–	–
Cc1cc(O)cc(C)c1Cl [CHLOROXYLENOL]	Not Active	Not Active	Not Active	Not Active	Not Active	Not Active	Not Active	Not Active	–	–	Not Active	–	–	–
CCCNC(=O)NS(=O)(=O)c1ccc(Cl)cc1 [CHLORPROPAMIDE]	Not Active	Not Active	Not Active	Not Active	Not Active	Not Active	Not Active	Not Active	–	–	Not Active	–	–	–
NS(=O)(=O)c1cc(C2(O)NC(=O)c3ccccc32)ccc1Cl (configuration not stated) [CHLORTHALIDONE]	Not Active	Not Active	Not Active	Not Active	Not Active	Not Active	Not Active	Not Active	–	–	Not Active	–	–	–
O=C(O)CC(O)(CC(=O)O)C(=O)O [CITRIC ACID]	Not Active	Not Active	Not Active	Not Active	Not Active	Not Active	Not Active	Not Active	–	–	Not Active	–	–	–
CC(C)NCC(O)c1ccccc1Cl (configuration not stated) [CLORPRENALINE]	Not Active	Not Active	Not Active	Not Active	Not Active	Not Active	Not Active	Not Active	–	–	Not Active	–	–	–
CN1CCCC(CN2c3ccccc3Sc3ccccc32)C1 (configuration not stated) [MEPAZINE]	Not Active	Not Active	Not Active	Not Active	Not Active	–	–	Not Active	–	–	Not Active	–	–	–
